# Results as given in ChEMBL document CHEMBL1201862, “PubChem BioAssay data set” (2004).
# Several values for one entry are separate records, joined by “and”; a condition that tells them apart may be missing. Equal entries are not always repeated.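 These data come from cells grown in 96-well plates and exposed to compound for 48 hours at five concentrations. Here, GI50 denotes the concentration required for 50% inhibition of growth.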 Activity calls are given as the source filed them. Cut-off read from the data, not from the text of the source: active = GI50 up to about 1.1 µM and inactive = higher.
# How the values were obtained:
# Test in all cases: growth of human tumour cells (NCI), 48 h
# ACHN = system: ACHN
# A498 = system: A498
# M14 = system: M14
# DU-145 = system: DU-145
# Hs-578T = system: Hs-578T
# SF-295 = system: SF-295
# SNB-19 = system: SNB-19
# SK-MEL-2 = system: SK-MEL-2
# NCI-H460 = system: NCI-H460
# A549 = system: A549
# HOP-92 = system: HOP-92
# PC-3 = system: PC-3
# HL-60 = system: HL-60
# HCT-116 = system: HCT-116
# MDA-N = system: MDA-N
# SK-MEL-5 = system: SK-MEL-5
# MDA-MB-435 = system: MDA-MB-435
# SR = system: SR
# HT-29 = system: HT-29
# UACC-62 = system: UACC-62
# EKVX = system: EKVX
# RXF 393 = system: RXF 393
# NCI-H522 = system: NCI-H522
# LOX IMVI = system: LOX IMVI
# SK-MEL-28 = system: SK-MEL-28
# NCI-H226 = system: NCI-H226
# RPMI-8226 = system: RPMI-8226
# SF-539 = system: SF-539
# IGROV-1 = system: IGROV-1
# UO-31 = system: UO-31
# SW-620 = system: SW-620
# K562 = system: K562
# CCRF-CEM = system: CCRF-CEM
# U-251 = system: U-251
# 786-0 = system: 786-0
# OVCAR-4 = system: OVCAR-4
# HOP-62 = system: HOP-62
# SK-OV-3 = system: SK-OV-3
# MDA-MB-231 = system: MDA-MB-231
# UACC-257 = system: UACC-257
# NCI-H23 = system: NCI-H23
# SF-268 = system: SF-268
# OVCAR-3 = system: OVCAR-3
# OVCAR-8 = system: OVCAR-8
# HCT-15 = system: HCT-15
# T47D = system: T47D
# MOLT-4 = system: MOLT-4
# OVCAR-5 = system: OVCAR-5
# COLO 205 = system: COLO 205
# NCI/ADR-RES = system: NCI/ADR-RES
# SN12C = system: SN12C
# Malme-3M = system: Malme-3M
# SNB-75 = system: SNB-75
# HCC 2998 = system: HCC 2998
# CAKI-1 = system: CAKI-1
# KM12 = system: KM12
# MCF7 = system: MCF7
# TK-10 = system: TK-10
smiles,measurement,setting,value
Cn1c(SCc2ccc(F)cc2)nnc1C12CC3CC(CC(C3)C1)C2,GI50,ACHN,33.5 µM (inactive)
same,GI50,A498,11 µM (inactive)
same,GI50,M14,24.2 µM (inactive)
same,GI50,DU-145,52 µM (inactive)
same,GI50,Hs-578T,34.8 µM (inactive)
same,GI50,SF-295,50.8 µM (inactive)
same,GI50,SNB-19,53.5 µM (inactive)
same,GI50,SK-MEL-2,40.6 µM (inactive)
same,GI50,NCI-H460,40 µM (inactive)
same,GI50,A549,36.6 µM (inactive)
same,GI50,HOP-92,25 µM (inactive)
same,GI50,PC-3,28.8 µM (inactive)
same,GI50,HL-60,11.1 µM (inactive)
same,GI50,HCT-116,23.3 µM (inactive)
same,GI50,MDA-N,38.5 µM (inactive)
same,GI50,SK-MEL-5,11.9 µM (inactive)
same,GI50,MDA-MB-435,22.5 µM (inactive)
same,GI50,SR,24.2 µM (inactive)
same,GI50,HT-29,16.1 µM (inactive)
same,GI50,UACC-62,27.1 µM (inactive)
same,GI50,EKVX,37.1 µM (inactive)
same,GI50,RXF 393,27.8 µM (inactive)
same,GI50,NCI-H522,36.9 µM (inactive)
same,GI50,LOX IMVI,22.2 µM (inactive)
same,GI50,SK-MEL-28,24.3 µM (inactive)
same,GI50,NCI-H226,33.5 µM (inactive)
same,GI50,RPMI-8226,20.1 µM (inactive)
same,GI50,SF-539,24.5 µM (inactive)
same,GI50,IGROV-1,12.7 µM (inactive)
same,GI50,UO-31,34.4 µM (inactive)
same,GI50,SW-620,58.7 µM (inactive)
same,GI50,K562,24.2 µM (inactive)
same,GI50,CCRF-CEM,17.1 µM (inactive)
same,GI50,U-251,35.2 µM (inactive)
same,GI50,786-0,35.8 µM (inactive)
same,GI50,OVCAR-4,35.2 µM (inactive)
same,GI50,HOP-62,47.3 µM (inactive)
same,GI50,SK-OV-3,52.1 µM (inactive)
same,GI50,MDA-MB-231,20.1 µM (inactive)
same,GI50,UACC-257,33.2 µM (inactive)
same,GI50,NCI-H23,50.6 µM (inactive)
same,GI50,SF-268,40.4 µM (inactive)
same,GI50,OVCAR-3,29.4 µM (inactive)
same,GI50,OVCAR-8,31.8 µM (inactive)
same,GI50,HCT-15,26.4 µM
same,GI50,T47D,56.9 µM (inactive)
same,GI50,MOLT-4,13.6 µM (inactive)
same,GI50,OVCAR-5,63.2 µM (inactive)
same,GI50,COLO 205,17 µM (inactive)
same,GI50,NCI/ADR-RES,28.9 µM (inactive)
same,GI50,SN12C,43.2 µM (inactive)
same,GI50,Malme-3M,19.5 µM (inactive)
same,GI50,SNB-75,37.8 µM (inactive)
same,GI50,HCC 2998,39.2 µM (inactive)
same,GI50,CAKI-1,> 100 µM (inactive)
CC(=O)OCC1OC(n2ncc(=O)[nH]c2=O)C(OC(C)=O)C1OC(C)=O (configuration not stated),GI50,ACHN,4.9 µM (inactive)
same,GI50,M14,73.5 µM (inactive)
same,GI50,DU-145,23 µM (inactive)
same,GI50,Hs-578T,19.1 µM (inactive)
same,GI50,SF-295,5.27 µM (inactive)
same,GI50,NCI-H460,1.17 µM (inactive)
same,GI50,A549,8.97 µM (inactive)
same,GI50,HOP-92,> 100 µM (inactive)
same,GI50,PC-3,68.9 µM (inactive)
same,GI50,HCT-116,1.07 µM (active)
same,GI50,MDA-N,32.3 µM (inactive)
same,GI50,SK-MEL-5,19.3 µM (inactive)
same,GI50,KM12,11.3 µM (inactive)
same,GI50,MDA-MB-435,32.4 µM (inactive)
same,GI50,SR,5.36 µM (inactive)
same,GI50,HT-29,6.67 µM (inactive)
same,GI50,UACC-62,23.2 µM (inactive)
same,GI50,MCF7,15.6 µM (inactive)
same,GI50,RXF 393,> 100 µM (inactive)
same,GI50,TK-10,> 100 µM (inactive)
same,GI50,NCI-H522,19.1 µM (inactive)
same,GI50,LOX IMVI,6.3 µM (inactive)
same,GI50,SK-MEL-28,> 100 µM (inactive)
same,GI50,NCI-H226,15.3 µM (inactive)
same,GI50,RPMI-8226,> 100 µM (inactive)
same,GI50,SF-539,30.3 µM (inactive)
same,GI50,IGROV-1,17.8 µM (inactive)
same,GI50,SW-620,1.4 µM (inactive)
same,GI50,K562,0.832 µM (active)
same,GI50,CCRF-CEM,0.718 µM (active)
same,GI50,U-251,1.09 µM (active)
same,GI50,786-0,4.04 µM (inactive)
same,GI50,OVCAR-4,> 100 µM (inactive)
same,GI50,HOP-62,21.7 µM (inactive)
same,GI50,SK-OV-3,61.2 µM (inactive)
same,GI50,MDA-MB-231,> 10 µM (inactive)
same,GI50,NCI-H23,68.5 µM (inactive)
same,GI50,SF-268,5.33 µM (inactive)
same,GI50,OVCAR-3,65.9 µM (inactive)
same,GI50,OVCAR-8,14.7 µM (inactive)
same,GI50,HCT-15,3.41 µM
same,GI50,T47D,> 100 µM (inactive)
same,GI50,MOLT-4,1.32 µM (inactive)
same,GI50,OVCAR-5,> 100 µM (inactive)
same,GI50,COLO 205,11.3 µM (inactive)
same,GI50,NCI/ADR-RES,61.7 µM (inactive)
same,GI50,SN12C,34.4 µM (inactive)
same,GI50,Malme-3M,> 100 µM (inactive)
same,GI50,SNB-75,40.3 µM (inactive)
same,GI50,HCC 2998,26.1 µM (inactive)
same,GI50,CAKI-1,9.4 µM (inactive)
O=[N+]([O-])c1ccc(OC2CC3C4C=CC3C2C4)c([N+](=O)[O-])c1 (configuration not stated),GI50,ACHN,37.4 µM (inactive) and > 31.6 µM (inactive)
same,GI50,M14,21.6 µM (inactive) and > 31.6 µM (inactive)
same,GI50,DU-145,45.8 µM (inactive) and > 31.6 µM (inactive)
same,GI50,Hs-578T,33.7 µM (inactive) and > 31.6 µM (inactive)
same,GI50,SF-295,16.5 µM (inactive) and > 31.6 µM (inactive)
same,GI50,SNB-19,32.3 µM (inactive) and > 31.6 µM (inactive)
same,GI50,A549,31 µM (inactive) and 33.3 µM (inactive)
same,GI50,SK-MEL-5,39.8 µM (inactive) and 21 µM (inactive)
same,GI50,MDA-MB-435,> 31.6 µM (inactive) and 24.3 µM (inactive)
same,GI50,SR,> 10 µM (inactive)
same,GI50,MCF7,> 100 µM (inactive) and 61.4 µM (inactive)
same,GI50,RXF 393,42.6 µM (inactive) and > 31.6 µM (inactive)
same,GI50,TK-10,> 31.6 µM (inactive) and 33.7 µM (inactive)
same,GI50,NCI-H522,43.6 µM (inactive) and > 31.6 µM (inactive)
same,GI50,NCI-H226,> 31.6 µM (inactive) and 42 µM (inactive)
same,GI50,RPMI-8226,0.0465 µM (active)
same,GI50,SF-539,> 31.6 µM (inactive) and 26.3 µM (inactive)
same,GI50,K562,30.8 µM (inactive) and > 31.6 µM (inactive)
same,GI50,U-251,37.6 µM (inactive) and > 31.6 µM (inactive)
same,GI50,786-0,24.6 µM (inactive) and > 31.6 µM (inactive)
same,GI50,OVCAR-4,22.8 µM (inactive) and > 31.6 µM (inactive)
same,GI50,HOP-62,45 µM (inactive) and > 31.6 µM (inactive)
same,GI50,UACC-257,20.9 µM (inactive) and > 31.6 µM (inactive)
same,GI50,OVCAR-3,43.5 µM (inactive) and 29.4 µM (inactive)
same,GI50,OVCAR-8,39.2 µM (inactive) and > 31.6 µM (inactive)
same,GI50,COLO 205,54 µM (inactive) and > 31.6 µM (inactive)
same,GI50,Malme-3M,31.4 µM (inactive) and 34.8 µM (inactive)
same,GI50,CAKI-1,29.2 µM (inactive) and > 31.6 µM (inactive)
CN(C)CC1CCCCCCCCCCC1=O (configuration not stated),GI50,Hs-578T,66.4 µM (inactive)
same,GI50,SK-MEL-5,> 100 µM (inactive)
same,GI50,UACC-62,> 100 µM (inactive)
same,GI50,SK-MEL-28,> 100 µM (inactive)
same,GI50,IGROV-1,> 100 µM (inactive)
same,GI50,SK-OV-3,86.7 µM (inactive)
same,GI50,SNB-75,> 100 µM (inactive)
B.CC(=O)OC1CN2CCC1CC2 (configuration not stated),GI50,ACHN,> 100 µM (inactive)
same,GI50,A498,> 100 µM (inactive)
same,GI50,M14,> 100 µM (inactive)
same,GI50,DU-145,> 100 µM (inactive)
same,GI50,Hs-578T,> 100 µM (inactive)
same,GI50,SF-295,> 100 µM (inactive)
same,GI50,SK-MEL-2,> 100 µM (inactive)
same,GI50,NCI-H460,> 100 µM (inactive)
same,GI50,A549,> 100 µM (inactive)
same,GI50,PC-3,> 100 µM (inactive)
same,GI50,HL-60,> 100 µM (inactive)
same,GI50,HCT-116,> 100 µM (inactive)
same,GI50,SK-MEL-5,> 100 µM (inactive)
same,GI50,KM12,> 100 µM (inactive)
same,GI50,MDA-MB-435,> 100 µM (inactive)
same,GI50,SR,> 100 µM (inactive)
same,GI50,HT-29,> 100 µM (inactive)
same,GI50,UACC-62,> 100 µM (inactive)
same,GI50,EKVX,> 100 µM (inactive)
same,GI50,MCF7,> 100 µM (inactive)
same,GI50,RXF 393,> 100 µM (inactive)
same,GI50,TK-10,> 100 µM (inactive)
same,GI50,SK-MEL-28,> 100 µM (inactive)
same,GI50,NCI-H226,> 100 µM (inactive)
same,GI50,SF-539,> 100 µM (inactive)
same,GI50,IGROV-1,> 100 µM (inactive)
same,GI50,SW-620,> 100 µM (inactive)
same,GI50,K562,> 100 µM (inactive)
same,GI50,CCRF-CEM,> 100 µM (inactive)
same,GI50,U-251,> 100 µM (inactive)
same,GI50,786-0,> 100 µM (inactive)
same,GI50,HOP-62,> 100 µM (inactive)
same,GI50,SK-OV-3,> 100 µM (inactive)
same,GI50,MDA-MB-231,> 100 µM (inactive)
same,GI50,NCI-H23,> 100 µM (inactive)
same,GI50,SF-268,> 100 µM (inactive)
same,GI50,OVCAR-3,> 100 µM (inactive)
same,GI50,OVCAR-8,> 100 µM (inactive)
same,GI50,HCT-15,> 100 µM
same,GI50,T47D,> 100 µM (inactive)
same,GI50,MOLT-4,> 100 µM (inactive)
same,GI50,OVCAR-5,> 100 µM (inactive)
same,GI50,NCI/ADR-RES,> 100 µM (inactive)
same,GI50,SN12C,> 100 µM (inactive)
same,GI50,Malme-3M,> 100 µM (inactive)
same,GI50,HCC 2998,> 100 µM (inactive)
